How the values were obtained:
SIK1 = biological target: T1, SIK1 (Homo sapiens, UniProt P57059); assay: ADP-Glo kinase assay, SIK1; format: biochemical
T1 construct: purchased Carna Biosciences 02-131
In short: (§1)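 Luminescent ADP-Glo readout of ADP formed. Enzyme-substrate mix with ATP, reaction 120 min at RT, then 40 min ATP depletion and 30 min detection. Controls were 1% DMSO (negative) and 10 μM staurosporine (positive), both final.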

SIK2 = biological target: T2, SIK2 (Homo sapiens, UniProt Q9H0K1); assay: ADP-Glo kinase assay, SIK2; format: biochemical
T2 construct: purchased ThermoFisher Scientific PV4792
In short: as §1

SIK3 = biological target: T3, SIK3 (Homo sapiens, UniProt Q9Y2K2); assay: ADP-Glo kinase assay, SIK3; format: biochemical
T3 construct: purchased SignalChem S12-11G-100
In short: as §1

[1] = tested on: LPS-induced TNFα in monocytes; assay: Monocytes assay: LPS-triggered TNFα (ELISA); format: cell-based, human; settings: Homo sapiens, Monocyte, LPS-triggered TNFα inhibition
Experimental: (§2) This assay evaluates illustrative compounds of the invention for their inhibition of LPS-induced TNFα and LPS triggered IL-10 secretion in monocytes.
(§3) PBMCs are isolated from human blood samples (buffycoats). The buffy coat is aseptically transferred into a 50 mL Falcon tube, and diluted 1/2 in PBS. Falcon tubes are filled with 20 mL Lymphoprep™, on top of which 25 mL of the buffy coat is carefully added, tubes are centrifuged for 35 min at 400 g in temperature controlled centrifuge, without brake, at 25° C. PBMCs are aspirated from the white interface layer between sample and Lymphoprep™. PBMCs are washed five times in PBS.
(§4) PBMCs are centrifuged at 300×g for 10 min and resuspended at a density of 1.0*10^7 cells/80 μL Miltenyi buffer (PBS, pH 7.4, 1% FBS, 2 mM EDTA).
(§5) Starting from this point of the protocol all steps are performed on ice. 20 μL of CD14+ micro-beads are added per 1.0*10^7 cells, the tube is mixed and incubated for 15 min in the fridge at 4° C. Cell suspension volume is adjusted to total volume of 100 mL using Miltenyi buffer, mixed gently and subsequently centrifuged for 10 min at 300×g. Supernatant is discarded and cell pellet is resuspended in 12 mL of Miltenyi buffer.
(§6) Four LS columns are placed in the MACS Separator (magnet) from Miltenyi Biotec, and are prewet by rinsing with 3 mL of MACS buffer per column. Three mL of cell suspension is added onto the column (max 1*10^8 of labelled cells/column), and columns are subsequently washed 3 times with 3 mL of Miltenyi buffer.
(§7) The columns are removed from the magnets, and 5 mL of Miltenyi buffer are added to the column to flush out the CD14+ fraction by pushing the plunger into the column. The flushed fractions are collected in a fresh 50 mL Falcon and volume is adjusted to 30 mL using Miltenyi buffer, cells are centrifuged for 10 min at 300×g. The obtained cell pellet is resuspended in 10 mL RPMI w/o FBS, and cell density is determined using a hematologic analyser (Sysmex XS-500i).
(§8) A compound dilution plate is made in 100% DMSO by 3-fold dilution of 10 mM stock solution. An intermediate dilution plate (10× final concentration) is made by diluting the compound dilution plate 50-fold in RPMI medium.
(§9) 10 μL of the 10× final concentration compound is added to the cells and incubated for 1 h at 37° C. before addition of trigger. No trigger conditions/trigger conditions are spiked with equal final DMSO concentrations of 0.2% DMSO. 10 μL of 10×LPS (final conc. 200 ng/mL) solution are added to all wells except for the ‘no trigger wells’ where 10 μL medium is added. Supernatant is collected after 4 h of LPS triggering.
The plate is then washed once with PBST (PBS+0.05% Tween20) and once with PBS followed by the addition of 100 μL of blocking buffer (1% Bovine Serum Albumin (BSA)-5% Sucrose) and plates are sealed and incubated for at least 4 h at RT. After washing the plate once with PBST and once with PBS, […]. Plates are washed twice with PBST, and once with PBS, after which 35 μL of the detection antibody is added (final concentration 0.25 μg/mL diluted in dilution buffer) and plates are incubated for at least 2 h at RT. Plates are washed twice with PBST, and once with PBS, whereafter 35 μL of Strep-HRP conjugate (0.5 μg/mL final concentration diluted in dilution buffer) is added. Plates are incubated in the dark, at RT for at least 45 min but no longer than 1 h. Plates are washed twice with PBST, and once with PBS. Thereafter, 50 μL of luminol substrate is added to each well (prepared according to manufacturer's instructions), and incubated for 5 min at RT protected from light.
To measure the inhibition of LPS induced TNFα, percentage inhibition (PIN) values are calculated for all concentrations tested, compared to controls.

[2] = tested on: LPS triggered IL-10 secretion in monocytes; assay: Monocytes assay: LPS-triggered IL-10 (ELISA); format: cell-based, human; settings: Homo sapiens, Monocyte, LPS-triggered IL-10 induction, median maximal fold change vs LPS only, read-out: IL-10 FCmax median
Experimental: as §2, §3, §4, §5, §6, §7, §8, §9
A Lumitrac 600 Greiner 384-well plate is coated with 40 μL of capture antibody (final concentration of 1 μg/mL in 1×PBS) and stored overnight at 4° C. The next day the plate is washed three times with PBST (PBS+0.05% Tween20) and once with PBS followed by the addition of 100 μL of blocking buffer (1% BSA-5% Sucrose) and plates are sealed and incubated for at least 4 h at RT. After washing the plate once with PBST and once with PBS, 40 μL of standard or sample are added (IL-10 standard curve is prepared using a 1/2 serial dilution starting from 2000 pg/mL; dilutions are made in dilution buffer (PBS+1% BSA)). […] Plates are washed twice with PBST, and once with PBS, whereafter 35 μL of Strep-HRP conjugate (0.5 μg/mL final concentration diluted in dilution buffer) is added. Plates are incubated in the dark, at RT for at least 45 min but no longer than 1 h. Plates are washed twice with PBST, and once with PBS. Thereafter, 50 μL of luminol substrate is added to each well (prepared according to manufacturer's instructions), and incubated for 5 min at RT protected from light.
To quantify these increases, fold changes (FC) compared to ‘LPS only’ are calculated for each concentration tested and the maximal FC is calculated (IL-10 FCmax): […]

[3] = tested on: LPS-induced TNFα in monocyte-derived macrophages; assay: MdM assay: LPS-triggered TNFα (ELISA); format: cell-based, human; settings: Macrophage; human MdM; LPS 200 ng/mL; supernatant after 20 h; inhibition of TNFα; read-out: TNFα EC50
Experimental: This assay evaluates illustrative compounds of the invention for their inhibition of LPS-induced TNFα and LPS triggered IL-10 secretion in monocyte-derived macrophages. PBMCs are isolated from human blood samples (buffycoats). The buffy coat is aseptically transferred into a 50 mL Falcon tube, and diluted 1/2 in PBS. Falcon tubes are filled with 20 mL LymphoprepTM, on top of which 25 mL of the buffy coat is carefully added, tubes are centrifuged for 35 min at 400 g in temperature controlled centrifuge, without brake, at 25° C. PBMCs are aspirated from the white interface layer between sample and LymphoprepTM. PBMCs are washed five times in PBS. […] PBMCs are centrifuged at 300×g for 10 min and resuspended at a density of 1.0*10^7 cells/80 μL Miltenyi buffer (PBS, pH 7.4, 1% FBS, 2 mM EDTA). Starting from this point of the protocol all steps are performed on ice. 20 μL of CD14+ micro-beads are added per 1.0*10^7 cells, the tube is mixed and incubated for 15 min in the fridge at 4° C. Cell suspension volume is adjusted to total volume of 100 mL using Miltenyi buffer, mixed gently and subsequently centrifuged for 10 min at 300×g. Supernatant is discarded and cell pellet is resuspended in 12 mL of Miltenyi buffer. Four LS columns are placed in the MACS Separator (magnet) from Miltenyi Biotec, and are prewet by rinsing with 3 mL of MACS buffer per column. Three mL of cell suspension is added onto the column (max 1*10^8 of labelled cells/column), and columns are subsequently washed 3 times with 3 mL of Miltenyi buffer. The columns are removed from the magnets, and 5 mL of Miltenyi buffer are added to the column to flush out the CD14+ fraction by pushing the plunger into the column. The flushed fractions are collected in a fresh 50 mL Falcon and volume is adjusted to 30 mL using Miltenyi buffer, cells are centrifuged for 10 min at 300×g. The obtained cell pellet is resuspended in 10 mL RPMI w/o FBS, and cell density is determined using a hematologic analyser (Sysmex XS-500i). […] On day 10, MdMs are triggered and compound is added. A compound dilution plate is made in 100% DMSO by 3-fold dilution of 10 mM stock solution. An intermediate dilution plate (10× final concentration) is made by diluting the compound dilution plate […] in RPMI medium. Medium is carefully removed from cell plates using multichannel pipette, and replaced by 80 μL fresh medium. 10 μL of the 10× final concentration compound is added to the cells and incubated for 1 hour at 37° C. before addition of trigger. No trigger conditions/trigger conditions are spiked with equal final DMSO concentrations of 0.2% DMSO. 10 μL of 10×LPS (final conc. 200 ng/mL) solution are added to all wells except for the 'no trigger wells' where 10 μL medium is added. Supernatant is collected after 2 h (IL-10 determination) and after 20 h (TNFα determination) of LPS triggering. […] The plate is then washed once with PBST (PBS+0.05% Tween20) and once with PBS followed by the addition of 100 μL of blocking buffer (1% Bovine Serum Albumin (BSA) -5% Sucrose) and plates are sealed and incubated for at least 4 h at RT. After washing the plate once with PBST and once with PBS, 40 μL of standard or sample are added (TNFα standard curve is prepared using a 1/2 serial dilution starting from 16000 pg/mL; dilutions are made in dilution buffer (PBS+1% BSA)). Plates are washed twice with PBST, and once with PBS, after which 35 μL of the detection antibody is added (final concentration 0.25 μg/mL diluted in dilution buffer) and plates are incubated for at least 2 h at RT. Plates are washed twice with PBST, and once with PBS, where after 35 μL of Strep-HRP conjugate (0.5 μg/mL final concentration diluted in dilution buffer) is added. […] Plates are washed twice with PBST, and once with PBS. Thereafter, 50 μL of luminol substrate is added to each well (prepared according to manufacturer's instructions), and incubated for 5 min at RT protected from light.

T1 sequence (P57059 whole entry): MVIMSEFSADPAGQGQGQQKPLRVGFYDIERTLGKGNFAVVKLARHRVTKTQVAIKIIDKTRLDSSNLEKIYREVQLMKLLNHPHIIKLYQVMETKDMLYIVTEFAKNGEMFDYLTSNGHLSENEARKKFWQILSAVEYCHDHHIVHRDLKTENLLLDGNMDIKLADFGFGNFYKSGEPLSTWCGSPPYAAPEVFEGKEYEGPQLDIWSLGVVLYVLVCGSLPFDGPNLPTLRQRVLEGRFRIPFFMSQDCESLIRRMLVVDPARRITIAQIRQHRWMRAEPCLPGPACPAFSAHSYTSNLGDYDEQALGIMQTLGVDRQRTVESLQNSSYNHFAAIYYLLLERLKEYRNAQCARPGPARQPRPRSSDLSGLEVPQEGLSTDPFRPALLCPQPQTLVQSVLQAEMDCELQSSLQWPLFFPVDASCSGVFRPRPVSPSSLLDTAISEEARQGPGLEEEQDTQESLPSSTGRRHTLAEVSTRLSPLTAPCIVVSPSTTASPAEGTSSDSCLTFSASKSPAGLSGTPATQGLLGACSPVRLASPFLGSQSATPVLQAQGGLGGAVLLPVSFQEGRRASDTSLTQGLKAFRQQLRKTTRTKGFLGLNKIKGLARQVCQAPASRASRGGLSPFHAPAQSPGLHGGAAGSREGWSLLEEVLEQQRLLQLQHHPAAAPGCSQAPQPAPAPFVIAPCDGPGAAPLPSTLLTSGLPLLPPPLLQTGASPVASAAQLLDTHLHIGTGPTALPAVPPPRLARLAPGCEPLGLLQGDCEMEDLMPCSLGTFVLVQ
T3 sequence (Q9Y2K2 59-365 limits assumed): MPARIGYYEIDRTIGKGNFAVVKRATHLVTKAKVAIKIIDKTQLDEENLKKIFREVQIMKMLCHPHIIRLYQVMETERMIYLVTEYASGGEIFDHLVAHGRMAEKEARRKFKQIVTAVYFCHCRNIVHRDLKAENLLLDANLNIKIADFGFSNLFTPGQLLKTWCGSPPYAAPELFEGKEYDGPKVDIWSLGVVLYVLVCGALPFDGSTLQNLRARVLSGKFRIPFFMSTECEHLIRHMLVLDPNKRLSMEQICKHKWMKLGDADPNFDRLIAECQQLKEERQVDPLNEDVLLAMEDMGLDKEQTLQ
T2 sequence (Q9H0K1 whole entry): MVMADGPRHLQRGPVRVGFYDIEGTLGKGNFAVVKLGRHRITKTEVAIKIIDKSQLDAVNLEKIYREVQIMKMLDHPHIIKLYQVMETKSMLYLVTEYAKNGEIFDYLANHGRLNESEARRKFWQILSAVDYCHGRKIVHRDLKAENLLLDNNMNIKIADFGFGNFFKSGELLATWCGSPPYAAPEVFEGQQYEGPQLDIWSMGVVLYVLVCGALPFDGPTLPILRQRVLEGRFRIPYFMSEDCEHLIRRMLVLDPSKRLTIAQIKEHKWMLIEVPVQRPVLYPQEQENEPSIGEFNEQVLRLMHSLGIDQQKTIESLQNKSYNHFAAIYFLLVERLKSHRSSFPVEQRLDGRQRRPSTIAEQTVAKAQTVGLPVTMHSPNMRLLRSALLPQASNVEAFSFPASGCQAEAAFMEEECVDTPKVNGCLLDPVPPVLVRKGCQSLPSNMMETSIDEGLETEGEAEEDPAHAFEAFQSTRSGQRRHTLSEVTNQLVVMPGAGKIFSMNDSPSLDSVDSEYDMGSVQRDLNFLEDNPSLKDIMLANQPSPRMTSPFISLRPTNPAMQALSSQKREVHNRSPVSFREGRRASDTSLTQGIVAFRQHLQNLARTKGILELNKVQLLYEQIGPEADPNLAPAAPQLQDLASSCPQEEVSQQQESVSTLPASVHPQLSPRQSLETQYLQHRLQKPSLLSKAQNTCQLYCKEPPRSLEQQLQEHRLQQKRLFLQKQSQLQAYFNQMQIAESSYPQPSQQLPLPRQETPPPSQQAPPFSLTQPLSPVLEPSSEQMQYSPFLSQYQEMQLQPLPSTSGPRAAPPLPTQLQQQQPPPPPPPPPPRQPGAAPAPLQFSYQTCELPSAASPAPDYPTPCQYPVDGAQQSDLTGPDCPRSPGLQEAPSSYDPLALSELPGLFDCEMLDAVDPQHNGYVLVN

Row | SMILES | IC50 (SIK1) [nM] | IC50 (SIK2) [nM] | IC50 (SIK3) [nM] | EC50 [1] [nM] | maximal fold induction [2] | EC50 [3] [nM]
1 | COc1cc(-c2cnc3cc(C4CCOCC4)c(OCCO)cn23)cc(OC(F)F)c1C(=O)NC1CC1 [Cpd 183, N-cyclopropyl-2-(difluoromethoxy)-4-[6-(2-hydroxyethoxy)-7-tetrahydropyran-4-yl-imidazo[1,2-a]pyridin-3-yl]-6-methoxy-benzamide] | > 500 | 100 to 500 | 10 to 100 | 1000 to 5000 | < 1.5 | 
2 | [2H]C([2H])([2H])C(C#N)(c1ccn2c(-c3cc(OC)c(C(=O)NC4CC4)c(OC(F)F)c3)cnc2c1)C([2H])([2H])[2H] [Cpd 230, 4-[7-[1-cyano-2,2,2-trideuterio-1-(trideuteriomethyl)ethyl]imidazo[1,2-a]pyridin-3-yl]-N-cyclopropyl-2-(difluoromethoxy)-6-methoxy-benzamide] | > 500 | 100 to 500 | 0.01 to 10 | 100 to 1000 | < 1.5 | 
3 | COc1cc(-c2cnn3cc(C(C)(C)C#N)ccc23)cc(OC(F)F)c1C(=O)N[C@H]1C[C@H]1F [Cpd 234, 4-[6-(1-cyano-1-methyl-ethyl)pyrazolo[1,5-a]pyridin-3-yl]-2-(difluoromethoxy)-N-[(1S,2R)-2-fluorocyclopropyl]-6-methoxy-benzamide] |  |  |  | 100 to 1000 | < 1.5 | 
4 | COc1cc(-c2cnc3cc(C(C)(O)CN4CC(F)(F)C4)ccn23)cc(OC(F)F)c1C(=O)NC1CC1 (stereo not shown) [Cpd 191, N-cyclopropyl-4-[7-[2-(3,3-difluoroazetidin-1-yl)-1-hydroxy-1-methyl-ethyl]imidazo[1,2-a]pyridin-3-yl]-2-(difluoromethoxy)-6-methoxy-benzamide] | > 500 | > 500 | 10 to 100 | 1000 to 5000 | < 1.5 | 
5 | COc1cc(-c2cnc3cc(C(C)(O)C(C)C)ccn23)cc(OC(F)F)c1C(=O)NC1CC1 (stereo not shown) [Cpd 135, N-cyclopropyl-2-(difluoromethoxy)-4-[7-(1-hydroxy-1,2-dimethyl-propyl)imidazo[1,2-a]pyridin-3-yl]-6-methoxy-benzamide] | > 500 | > 500 | 10 to 100 |  |  | 100 to 1000
6 | COc1cc(-c2cnn3cc(C(C)(C)C#N)ccc23)cc(OC(F)F)c1C(=O)N[C@@H]1C[C@@H]1F (racemic) [Cpd 233, 4-[6-(1-cyano-1-methyl-ethyl)pyrazolo[1,5-a]pyridin-3-yl]-2-(difluoromethoxy)-N-(2-fluorocyclopropyl)-6-methoxy-benzamide] |  |  |  | 100 to 1000 | < 1.5 | 
7 | COc1cc(-c2cnc3cc(C4CCCN(C)C4)ccn23)cc(OC(F)F)c1C(=O)NC1CC1 (stereo not shown) [Cpd 67, N-cyclopropyl-2-(difluoromethoxy)-6-methoxy-4-[7-(1-methyl-3-piperidyl)imidazo[1,2-a]pyridin-3-yl]benzamide] | > 500 | 10 to 100 | 0.01 to 10 |  |  | 100 to 1000
8 | COc1cc(-c2cnc3cc(C(C)(C)OC)ccn23)cc(OC(F)F)c1C(=O)NC1CC1 [Cpd 120, N-cyclopropyl-2-(difluoromethoxy)-6-methoxy-4-[7-(1-methoxy-1-methyl-ethyl)imidazo[1,2-a]pyridin-3-yl]benzamide] | > 500 | > 500 | 0.01 to 10 |  |  | 100 to 1000
